Test results taken from patent US6723708B2, “Use of lithium (Li+) for the preparation of a composition for transfection of a polynucleotide into a cell and compositions useful in gene therapy” (Transgene S.A., priority 1999, dated 2004).

System: tibialis anterior muscles
Experiment: Intramuscular transfection of plasmid pTG11033 with LiCl, luciferase activity in muscle extracts
Assay type: in vivo, C57BL/10 mice
Settings: pTG11033 25 μg/muscle intramuscular with LiCl 0.1, 1, 10 mM; measured 7 days after injection; versus NaCl 0.9% control
Method: Plasmid DNA (pTG11033: CMV promoter, β-globin intron, luciferase cassette—WO 98/34910) was prepared according to Bischoff et al., Analytical Biochemistry 254 (1997), 69-81. Prior to intramuscular injection the tested molecules were mixed with the plasmid DNA preparation. 25 μg of plasmid DNA were injected per muscle into 5 to 10 week-old C57BL/10 mice. The 2 tibialis anterior (right and left) muscles were injected (each muscle was considered as a sample). Furthermore, for each condition, both the lowest and highest luciferase acitvity values were omitted, which means number of sample per condition=(2×number of mice per condition)−2.
One week after injection of the composition, the mice were killed and the tibialis anterior muscles were retrieved and frozen. Luciferase activity was quantified on whole muscle extracts using a conventional measurement kit (Luciferase Assay System, Promega). Briefly, muscles were ground separately and diluted in 200 μl of reporter lysis buffer (Promega). 10 μl-samples were placed in 96 well-plates and mixed with 100 μl of substrate. Luciferase activity was expressed as number of RLU emitted per minute, per mg of protein.
Protein was measured on 10 μl samples using a VCA Protein Assay kit (Pierce).
In this example, the stock solution of plasmid pTG11033 was prepared in TE buffer (Tris 10 mM—EDTA 1 mM) at a nucleic acid concentration of […]. […]

Which “increase of luciferase activity in the injected muscles” value does the source give for `[Cl-].[Li+]` [LiCI, lithium chloride] here?
The value was “around 5 times”.
